From PubChem BioAssay AID1935 (Broad Institute, 2009)
Records with an inconclusive call do not appear. Activity calls are given as the source filed them. No rule for the calls is given here.

Tested on: BJ-TERT-LT-ST fibroblast viability, ATP luminescence
Test: BJ-TERT-LT-ST fibroblast viability loss – cell-based, RAS-independent, luminescence, dose response (AID 1935)

SMILES: CCc1ccc(/C=C2\SC(=S)N(CCC(=O)NCCCN3CCOCC3)C2=O)cc1
- EC50: > 15 µM (inactive)

SMILES: CCc1ccc(/C=C2/SC(=S)N(CCC(=O)NCCCN3CCOCC3)C2=O)cc1
- EC50: > 15 µM (inactive)
